Source: patent publication US20250170140A1, “PHARMACEUTICAL COMPOSITION FOR PREVENTING OR TREATING CANCER COMPRISING CARNITINE ACYLCARNITINE CARRIER INHIBITOR AND PEROXISOMAL BETA OXIDATION INHIBITOR” (priority 2021, published 2025)

Tested on: MIA PaCa-2
Experiment: SRB assay, cancer cell growth, pancreatic cancer cell line MIA PaCa-2
Assay type: cell-based
Settings: MIA PaCa-2
Experimental: As a comparison, omeprazole (KN510) and trimetazidine (KN713), a 3-ketoacyl CoA thiolase inhibitor, were co-treated. […] After cell inoculation, 96-well cell culture plates were incubated for 24 hours before the addition of experimental drugs. […] The cells were then incubated in a CO2 incubator for 48 hours, after which the assay was terminated by the addition of cold TCA. Cells were fixed in situ by gently adding 50 μl of cold 50% (w/v) TCA (final concentration: 10% TCA) and incubated at 4° C. for 60 min. The supernatant was discarded, and the plate was washed five times with distilled water and air dried. Sulforhodamine B (SRB) solution (100 μl) of 0.4% (w/v) in 1% acetic acid was added to each well, and the plate was left at room temperature for 10 min. After staining, unbound dye was removed by washing five times with 1% acetic acid, and the plate was air-dried. The bound dye was then solubilized with 10 mM trizma base, and the absorbance was recorded at 515 nm using an automated plate reader. […] The predicted synergistic activity of a combination of the present invention can be calculated using the Colby Equation in Equation 1 (S.R. Colby, Weeds, 1967, pp. 15, 20-22): α and β are the measured anti-cancer activity of each compound alone, and E is the predicted anti-cancer activity of a mixture of α and β as a prediction. In the present invention, the actual measure of anti-cancer activity of the combination treatment was the inhibition rate of cancer cell growth (%), and the predicted value (E) of the combination treatment was measured by substituting it into the above Colby Equation.

COc1ccc(CN2CCNCC2)c(OC)c1OC [KN713, trimetazidine]
GI50 (Homo sapiens, 48 hours, read-out: GI50 (Half maximal growth inhibition concentration)): 1810 µM
Cancer cell growth rate Average (%) (Conc. 10^−2M, Table 1): −29.68%
Cancer cell growth rate Average (%) (Conc. 10^−3M, Table 1): 95.03%
Cancer cell growth rate Average (%) (Conc. 10^−4M, Table 1): 95.50%
Cancer cell growth rate Average (%) (Conc. 10^−5M, Table 1): 94.52%
Cancer cell growth rate Average (%) (Conc. 10^−6M, Table 1): 97.75%
Cancer cell growth rate Average (%) (Conc. 10^−7M, Table 1): 97.85%
Cancer cell growth rate Average (%) (comparative example, Table 3, KN713 2.5 mM): 88.90%
